This note sets out measurements from US20250213587A1, “ITK INHIBITORS FOR INCREASING TH1 CELL ACTIVITY” (Corvus Pharmaceuticals, Inc., priority 2022, published 2025).

Test [1] has as its target Fyn (Homo sapiens, UniProt P06241). Description: Human kinome profiling at 1.0 μM, Fyn. Format: biochemical. To be noted: read-out: percent control, Fyn.
Test [2] deals with ZAP-70 (Homo sapiens, UniProt P43403). The experiment in a line: Human kinome profiling at 1.0 μM, ZAP-70. Format: biochemical. The following applies: read-out: percent control, ZAP-70.
Chain of ZAP-70 (P43403 whole entry): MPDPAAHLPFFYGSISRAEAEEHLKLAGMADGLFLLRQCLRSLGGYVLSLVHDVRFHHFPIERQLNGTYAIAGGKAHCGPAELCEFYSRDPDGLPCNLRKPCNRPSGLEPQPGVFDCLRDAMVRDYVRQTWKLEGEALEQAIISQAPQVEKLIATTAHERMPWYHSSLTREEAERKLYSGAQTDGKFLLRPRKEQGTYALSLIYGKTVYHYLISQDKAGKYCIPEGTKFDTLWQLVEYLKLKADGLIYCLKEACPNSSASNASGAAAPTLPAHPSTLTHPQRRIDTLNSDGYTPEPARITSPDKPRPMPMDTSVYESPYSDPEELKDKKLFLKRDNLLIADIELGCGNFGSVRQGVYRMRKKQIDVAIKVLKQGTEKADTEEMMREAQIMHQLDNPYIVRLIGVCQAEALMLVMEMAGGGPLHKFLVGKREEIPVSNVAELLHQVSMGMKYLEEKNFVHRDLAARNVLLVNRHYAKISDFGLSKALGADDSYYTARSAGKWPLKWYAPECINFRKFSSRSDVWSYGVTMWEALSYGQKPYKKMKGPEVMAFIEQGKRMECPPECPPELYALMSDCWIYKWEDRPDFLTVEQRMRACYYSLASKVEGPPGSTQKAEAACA
Test [3] concerns the target T1, ITK (Homo sapiens, UniProt Q08881).
T1 sequence (Q08881 1-620): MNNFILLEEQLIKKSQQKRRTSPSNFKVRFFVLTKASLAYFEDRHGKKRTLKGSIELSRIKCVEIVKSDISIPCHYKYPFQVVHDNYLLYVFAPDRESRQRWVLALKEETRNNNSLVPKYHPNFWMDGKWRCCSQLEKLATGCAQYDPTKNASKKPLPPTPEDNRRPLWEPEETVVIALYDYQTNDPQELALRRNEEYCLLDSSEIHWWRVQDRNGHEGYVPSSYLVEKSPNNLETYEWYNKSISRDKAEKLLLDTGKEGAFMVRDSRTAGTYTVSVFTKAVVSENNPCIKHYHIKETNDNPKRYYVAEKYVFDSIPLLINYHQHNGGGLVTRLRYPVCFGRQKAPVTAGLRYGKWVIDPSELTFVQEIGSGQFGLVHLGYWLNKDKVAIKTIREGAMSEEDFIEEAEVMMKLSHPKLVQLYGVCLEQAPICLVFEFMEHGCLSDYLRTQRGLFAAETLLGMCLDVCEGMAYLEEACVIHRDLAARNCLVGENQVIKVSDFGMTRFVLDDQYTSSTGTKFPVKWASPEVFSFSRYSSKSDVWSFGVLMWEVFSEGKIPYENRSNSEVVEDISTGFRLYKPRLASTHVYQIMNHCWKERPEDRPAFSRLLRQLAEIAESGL
Description: ITK occupancy in patients at steady state. Format: in vivo.

The target of test [4] is T2, ITK (Canis lupus familiaris, UniProt A0A8I3MMK2).
T2 construct: from tissue; host or cells: PBMC of dosed dogs
T2 sequence (A0A8I3MMK2 1-620): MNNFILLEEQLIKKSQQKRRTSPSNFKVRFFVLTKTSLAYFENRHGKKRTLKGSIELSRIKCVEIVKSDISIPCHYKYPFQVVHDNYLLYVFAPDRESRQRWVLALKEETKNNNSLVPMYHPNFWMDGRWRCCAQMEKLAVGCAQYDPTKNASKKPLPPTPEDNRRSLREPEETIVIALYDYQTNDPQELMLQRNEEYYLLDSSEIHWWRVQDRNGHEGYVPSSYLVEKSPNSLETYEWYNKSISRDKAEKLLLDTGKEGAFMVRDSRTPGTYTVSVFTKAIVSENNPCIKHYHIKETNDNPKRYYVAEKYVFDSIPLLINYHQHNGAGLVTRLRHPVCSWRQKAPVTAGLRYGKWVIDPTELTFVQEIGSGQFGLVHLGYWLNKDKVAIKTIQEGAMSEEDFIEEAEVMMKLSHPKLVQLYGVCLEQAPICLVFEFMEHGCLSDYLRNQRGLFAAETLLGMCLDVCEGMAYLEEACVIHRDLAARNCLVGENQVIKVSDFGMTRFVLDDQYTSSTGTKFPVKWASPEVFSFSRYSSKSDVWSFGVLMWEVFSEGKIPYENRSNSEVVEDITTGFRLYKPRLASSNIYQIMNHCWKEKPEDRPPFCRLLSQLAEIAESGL
Description: ITK occupancy in dog PBMC. The format is in vivo. The following applies: po, single 5 mg/kg PO. How it is done: The active site occupancy of ITK by a covalent inhibitor was measured using an irreversibly bound biotinylated probe in an immuno-electrochemiluminescence assay. The binding of an inhibitor and the probe to the ATP binding site is mutually exclusive. In lysates of immune cell lines or immune cells collected from treated animals, the biotinylated probe reacts with free (uninhibited) ITK and is subsequently captured on a streptavidin-coated surface and quantified. The free ITK in each sample is normalized by dividing it by either the lysate protein concentration (BCA protein assay, Pierce) or cell count of the sample. Normalized free ITK values are generated for samples collected prior to and after treatment from which occupancy was calculated using equation 7. Single cell suspensions of Jurkat cells, mouse splenocytes, dog PBMC or purified normal human T cells were prepared. Cell lysis was performed using a buffer containing CelLytic M (Sigma Aldrich) supplemented with protease and phosphatase inhibitors (Pierce). The cell pellet resuspended in lysis buffer was incubated at room temperature for 30 minutes when the lysate was clarified by centrifugation at 20,000×g for 5 minutes at 4° C. […] Read buffer (Mesoscale Diagnostics) diluted two-fold with water was dispensed into the wells of the plate which was read immediately using an MESO Quickplex SQ 120 instrument.

Test [5] concerns the target T1, ITK. The experiment in a line: Dialysis assay. Format: biochemical. To be noted: 24 h dialysis. The procedure: Dialysis was performed at room temperature against the same buffer for 24 hours in a Slide-A-Lyzer dialysis device (10 kDa MWCO) with three changes of the dialysis buffer giving a nominal final dialysis factor of 8×10^6. Un-dialyzed control samples incubated in parallel for 24 hours. ITK activity was measured following dialysis in a continuous sampling format using the microfluidic assay and 300 μM ATP and 2 μM Scrtide peptide substrate. The enzymatic velocity of treated samples was normalized to the appropriate control rate and expressed as a percent.

The test system of test [6] is IL-4 production by CD4+ T cells. Description: T cell activation, IL-4+CD4+ T cells. Format: cell-based, human. How it is done: Fresh PBMCs from healthy human donors were centrifuged and reconstituted at 0.312×10^6 cells/mL in RPMI 1640 medium+10% heat-inactivated FBS+1× penicillin streptomycin and 100,000 cells/well were distributed into 24 well tissue culture plate. Cells were incubated at 37° C. for 1 hour, followed by the addition of CPI 596 or vehicle. The cells were then incubated at 37° C. for 1 hour, followed by the addition of […] anti CD3 and anti CD28 (both eBioscience). Cells were incubated at 37° C. for 6 days, with supplemental media supplied on day 3. On Day 6, the cells were transferred to a 96 deep well plate, washed, and treated with 50 nM phorbol 12-myristate 13-acetate, 1 μg/mL ionomycin, and 1 μg/mL brefeldin A, and then incubated at 37° C. for 4 hours. The cells were then fixed and permeabilized using eBioscience Fox3/transcription factor staining buffer. Cells were treated with Fc block (BioLegend) and then stained with CD3 BV605, CD45RA PerCP-Cy5.5, Tbet PE, IFNγ AF488, IL-4 APC (BioLegend), CD4 PE-Cy7, cPARP AF700 (BD Biosciences), and CD8 Krome Orange (Beckman Coulter). For flow cytometry, 300,000 cells were acquired on Cytoflex (Beckman Coulter). Data were analyzed using Flowjo software. The percentage of CD4^+ T cells that were positive for IFNγ and IL 4 were reported.

Chain of Fyn (P06241 whole entry): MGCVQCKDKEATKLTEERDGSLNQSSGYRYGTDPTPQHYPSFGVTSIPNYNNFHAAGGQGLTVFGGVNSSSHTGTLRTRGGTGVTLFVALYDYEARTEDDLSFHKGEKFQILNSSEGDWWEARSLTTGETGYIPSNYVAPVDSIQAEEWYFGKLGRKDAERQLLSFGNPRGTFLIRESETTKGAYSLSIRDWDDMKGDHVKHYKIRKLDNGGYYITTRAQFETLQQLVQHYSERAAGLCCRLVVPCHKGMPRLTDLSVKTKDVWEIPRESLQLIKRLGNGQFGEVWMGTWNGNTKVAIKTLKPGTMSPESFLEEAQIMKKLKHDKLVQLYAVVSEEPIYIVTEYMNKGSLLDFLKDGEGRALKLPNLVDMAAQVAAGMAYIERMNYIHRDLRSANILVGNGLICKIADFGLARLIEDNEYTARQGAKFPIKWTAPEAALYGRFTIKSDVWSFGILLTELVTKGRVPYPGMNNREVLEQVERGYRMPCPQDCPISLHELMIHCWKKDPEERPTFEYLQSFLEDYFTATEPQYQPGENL

For `C=CC(=O)N1CCCN(C(=O)c2cc(Sc3cnc(NC(=O)C4CC4)s3)c(C)cc2OC)C[C@H]1C` [CPI-818], the values for the remaining activity at 1 µM in test [1] and in test [2] were 99% and 59%, respectively. Further, in test [3] (human, 400 mg BID and 600 mg BID, read-out: steady state trough ITK occupancy), the receptor occupancy at 400 mg was approximately 90%. Further, the “steady state peak ITK occupancy, mean” value in test [3] (patients, 100-600 mg BID) was “at least 90%”. The receptor occupancy at 5 mg/kg in test [4] (2 h) turned out to be 91%; in test [4] (24 h), 31%. For the same compound, the “ITK activity after extensive dialysis” value in test [5] was “kinase activity was not recovered”; in test [5] (listed as CP-818) it was “remained inhibited”. Also, the IL-4 production result in test [6] (10 μM) is “complete inhibition”. Further, the inhibition at 1 µM in test [6] (Homo sapiens, CD4+ T, 1 μM, average, read-out: inhibition of percentage of CD4+ T cells that produced IL-4) turned out to be 64%.

What is called inhibition is the change of the read-out against control, counted positive when it falls.
